According to PMC12865225 (Clinical and Translational Science, 2026):

Legend:
BCRP = molecular target: T1, BCRP (Homo sapiens, UniProt Q9UNQ0); assay: Efflux transport assay in BCRP HEK293 membrane vesicles; type: biochemical; conditions: 5 and 50 µM
T1 construct: made in house; host or cells: membrane vesicles from HEK293 cells expressing the transporter
T1 sequence (Q9UNQ0 1-655): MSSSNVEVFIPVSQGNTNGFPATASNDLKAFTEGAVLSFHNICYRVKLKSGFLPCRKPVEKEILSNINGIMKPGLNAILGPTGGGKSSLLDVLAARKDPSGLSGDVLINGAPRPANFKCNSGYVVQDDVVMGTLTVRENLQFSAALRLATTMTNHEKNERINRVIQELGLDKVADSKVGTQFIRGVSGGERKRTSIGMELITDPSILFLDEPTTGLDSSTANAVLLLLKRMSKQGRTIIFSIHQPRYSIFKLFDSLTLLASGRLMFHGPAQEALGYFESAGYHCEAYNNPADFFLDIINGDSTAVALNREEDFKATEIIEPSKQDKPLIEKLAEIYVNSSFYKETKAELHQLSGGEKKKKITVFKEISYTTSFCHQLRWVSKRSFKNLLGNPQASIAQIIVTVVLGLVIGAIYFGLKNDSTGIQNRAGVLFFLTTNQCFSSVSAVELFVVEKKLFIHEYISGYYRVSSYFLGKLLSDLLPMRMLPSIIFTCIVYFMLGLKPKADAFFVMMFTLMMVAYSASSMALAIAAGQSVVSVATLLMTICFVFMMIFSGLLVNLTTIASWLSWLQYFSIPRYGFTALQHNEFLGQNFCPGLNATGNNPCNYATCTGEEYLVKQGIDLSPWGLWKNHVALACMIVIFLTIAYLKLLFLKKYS
Experimental: Membrane vesicles, 5 μL (7.5 μg of total protein), prepared as previously reported, were aliquoted to wells of a conical‐shaped 96‐well plate. The plate was incubated for 10 min at +37°C before the initiation of transport by adding 25 μL of TS‐buffer (10 mM Tris, 250 mM sucrose, pH adjusted to 7.4 with HEPES) containing magnesium chloride (10 mM final in the reaction), adenosine triphosphate (ATP) or adenosine monophosphate (AMP), 4 mM final in the reaction, and the transporter substrate and inhibitor. Each experiment included triplicate samples for both ATP and AMP samples. The concentrations of rosuvastatin and N‐methyl‐quinidine were 1 μM in the BCRP and P‐gp vesicle inhibition assays, respectively. […] The transport reactions were quenched by adding 200 μL of cold TS‐buffer to each well and transferring the samples to a 96‐multiwell 1.0 μm glass fiber filter plate (Merck Millipore, Darmstadt, Germany) kept under vacuum. Wells were further washed four times with cold TS‐buffer, after which the plate was dried under vacuum. The compounds were eluted from the plate by applying 100 μL of 75% methanol containing 0.1% formic acid to each well and incubating at 250 RPM for 30 min before centrifuging the samples to an analysis plate at 2800 g for 2 min. For the rosuvastatin samples, the elution solvent contained rosuvastin‐d6 as the internal standard. […]

[1] = cited from earlier work
OAT4 = molecular target: T2, OAT4 (Homo sapiens, UniProt Q9NSA0); assay: Uptake transport assay in OAT4-expressing HEK293 cells; type: cell-based; conditions: for transport by OAT4: 2 and 50 μM, 10 min; for Vmax (pmol/106 cells/min) OAT4: uptake, 2 min
T2 construct: expressed in transfected cells; host or cells: HEK293 (recombinant baculovirus-mediated transduction)
T2 sequence (Q9NSA0 1-550): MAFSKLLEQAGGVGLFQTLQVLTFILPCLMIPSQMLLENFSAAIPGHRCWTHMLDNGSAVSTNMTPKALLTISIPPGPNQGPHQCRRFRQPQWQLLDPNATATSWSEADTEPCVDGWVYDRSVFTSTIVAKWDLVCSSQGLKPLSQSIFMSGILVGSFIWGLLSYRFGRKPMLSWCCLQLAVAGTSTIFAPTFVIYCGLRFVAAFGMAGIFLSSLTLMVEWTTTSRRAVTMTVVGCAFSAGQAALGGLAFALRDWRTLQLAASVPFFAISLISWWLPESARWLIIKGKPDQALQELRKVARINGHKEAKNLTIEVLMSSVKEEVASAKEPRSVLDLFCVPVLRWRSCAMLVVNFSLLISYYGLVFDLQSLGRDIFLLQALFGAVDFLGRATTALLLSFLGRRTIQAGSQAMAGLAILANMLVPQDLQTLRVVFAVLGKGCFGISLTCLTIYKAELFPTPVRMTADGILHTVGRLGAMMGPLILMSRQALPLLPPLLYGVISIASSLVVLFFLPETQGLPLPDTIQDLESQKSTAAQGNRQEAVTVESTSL
Experimental: The human transporters OATP1B1, OATP1B3, OATP2B1, and OAT1‐OAT4 and a negative control protein (enhanced yellow fluorescent protein, eYFP) were transiently expressed in human embryonic kidney 293 (HEK293) cells by recombinant baculovirus‐mediated transduction. Baculoviruses carrying human genes for the transporters were prepared as reported previously. HEK293 cells were cultured in DMEM containing 10% fetal bovine serum at 37°C and 5% CO2 and passaged two to three times per week. For the transport studies, 0.05 × 10^6 cells for 48‐well plates (OATPs) or 0.06 × 10^6 cells for 24‐well plates (OATs) were seeded onto cell‐culture treated well plates coated with poly‐D‐lysine. After 1 day, cells were transduced to produce recombinant proteins by changing media to DMEM containing 30 μL (48‐well plates) or 60 μL (24‐well plates) of recombinant baculovirus and 3 mM (OATs) or 5 mM (OATPs) sodium butyrate in a total media volume of 500 μL. The cells were cultured for a further 2 days before the transport assays.
For the transport studies, media were removed and cells were washed once with warm transport uptake buffer (TP‐buffer—pH 7.4 HBSS with 25 mM HEPES and 4 mM sodium bicarbonate). Each experiment included triplicate (OATP) or duplicate (OAT) samples for every test condition. The uptake was started by removing liquid from wells and applying warm TP‐buffer (200 μL for 24‐well plates or 125 μL for 48‐well plates) containing a test compound to cells. Transport assays were terminated after a pre‐specified incubation time (reported in figure legends) by removing substrate solution and washing cells three times with cold TP‐buffer (300 μL for 48‐well plates and 400 μL for 24‐well plates). For the liquid chromatography mass spectrometry (LC–MS) analysis, compounds were extracted from cells with 125 μL (48‐well plates) or 250 μL (24‐well plates) of an ultrapure‐water solution containing 75% methanol and 0.1% formic acid, shaking at 250 RPM for 30 min. […] Samples were transferred to well plates, centrifuged at 3000 g for 30 min, and transferred to a new well plate for the analysis.
Equation (2) (the Michaelis–Menten equation) was fit to the transport kinetic assay data. […] (2) Uptake=Vmax×S/Km+S

| SMILES | transport by BCRP (BCRP) | decrease of renal clearance by probenecid [1] [fold] | increase of C max and AUC by cyclosporine and probenecid [1] [fold] | transport by OAT4 (OAT4) | Vmax (pmol/106 cells/min) OAT4 (OAT4) [pmol/106 cells/min] |
| --- | --- | --- | --- | --- | --- |
| Cc1onc(-c2c(Cl)cccc2Cl)c1C(=O)N[C@@H]1C(=O)N2[C@@H]1SC(C)(C)[C@@H]2C(=O)O [Dicloxacillin] | did not transport | 4 | < 2 | transported | 239 |
| Cc1onc(-c2c(F)cccc2Cl)c1C(=O)N[C@@H]1C(=O)N2[C@@H]1SC(C)(C)[C@@H]2C(=O)O [Flucloxacillin] | did not transport |  |  | transported | 245 |
